The test system of data set [1] is cTnI-G203S mice. Nature of the data set: Echocardiography of treated cTnI-G203S mice. The data set is classed as in vivo, mouse. The settings on record: for FS / HW:BW / IVSD / IVSS / LVDPW / LVEDD / LVESD / LVSPW: 10 μM i.p. 3×/wk/5 wk, mean. As for the experimental part:
Male mice expressing the human cTnI gene encoding the human disease-causing mutation cTnI-G203S were used for all studies. The mice develop hallmark features of HCM by 21 wk ([7], [13]). Male mice expressing the normal human cTnI gene were used as controls (wt). Ten-week-old mice were used for in vitro studies. For in vivo studies, 20- or 30-wk-old cTnI-G203S mice were treated with 10 μM AID-TAT or AID[S]-TAT via intraperitoneal injection, 3×/wk/5 wk. In vivo dose of AID-TAT or AID[S]-TAT (10 μM) was calculated based on blood volume, equating to ∼2 mg/kg total BW. Male animal models were used to eliminate potential differences in responses due to sex. Experiments were performed in a total of 21 wt (AID[S]-TAT), 6 wt (AID-TAT), 15 cTnI-G203S (AID[S]-TAT), and 26 cTnI-G203S (AID-TAT) mice. All animals were randomly assigned to treatment groups. All animal studies were approved by the Animal Ethics Committee of The University of Western Australia in accordance with the 2013 Australian Code for the Care and Use of Animals for Scientific Purposes ([58]).
Echocardiographic measurement of left ventricular function were performed on mice under light methoxyflurane anesthesia using an i13L probe on a Vivid 7 Dimension ultrasound system (GE Healthcare), as previously described ([13], [29], [30]). Each n represents the average of quantitative measurements from wt or cTnI-G203S mice for each treatment group. Detailed methods are provided in SI Appendix.
Echocardiographic measurement of left ventricular function were performed on mice under light methoxyflurane anesthesia using an i13L probe on a Vivid 7 Dimension ultrasound system (GE Healthcare, Little Chalfont, United Kingdom) as previously described (4, 7). Echocardiographic measurements were taken on M-mode in triplicate from separate mice at a sweep speed of 200 mm/s. Each n represents the average of quantitative measurements from wt or cTnI-G203S mice for each treatment group. Measurements of left ventricular end diastolic diameter (LVEDD), left ventricular end systolic diameter (LVESD), fractional shortening (FS), left ventricular posterior wall in diastole (LVDPW), left ventricular posterior wall in systole (LVSPW), interventricular septum in diastole (IVSD), interventricular septum in systole (IVSS) and end diastolic diameter (EDD) were made. FS was calculated by the formula [(LVEDD-LVESD)/EDD] x 100. […]
(BioAssay Systems, Hayward CA). All assays were performed as per manufacturer’s instructions, using a spectrophotometer (PowerWave XS).

For data set [2], the system named is myocytes isolated from wt and cTnI-G203S mice. Put plainly: Confocal imaging of F-actin (phalloidin) in myocytes from treated mice. Format: in vivo, mouse. The settings on record: myocytes from cTnI-G203S mice treated 10 μM 3×/wk/5 wk, Pre HCM Rx. As for the experimental part:
Following completion of treatment regimens, myocytes were isolated and prepared for confocal imaging based on previously described methods ([29]). Detailed methods are provided in SI Appendix.
Echocardiographic measurement of left ventricular function were performed on mice under light methoxyflurane anesthesia using an i13L probe on a Vivid 7 Dimension ultrasound system (GE Healthcare, Little Chalfont, United Kingdom) as previously described (4, 7). Echocardiographic measurements were taken on M-mode in triplicate from separate mice at a sweep speed of 200 mm/s. Each n represents the average of quantitative measurements from wt or cTnI-G203S mice for each treatment group. […] FS was calculated by the formula [(LVEDD-LVESD)/EDD] x 100.
Cell size was determined as previously described (16). […]
To measure kidney toxicity, urea and creatinine concentration was assessed using QuantiChrom Urea and Creatinine assay kits respectively (BioAssay Systems, Hayward CA). To measure liver toxicity, alanine transaminase (ALT) and aspartate transaminase (AST) concentration was measured using Alanine Transaminase and Aspartate Transaminase assay kits respectively (BioAssay Systems, Hayward CA). […]

Data set [3] concerns rats. The settings on record: cited from earlier work.
[4] abbreviates: Post-HCM treatment (from 30 wk), 35-wk-old cTnI-G203S mice, n = 5.
Where [5] appears, read: Pre-HCM treatment (from 20 wk), 25-wk-old cTnI-G203S mice, n = 7 AID(S)-TAT, n = 6 AID-TAT.

Marks after values point to notes of the source that are not given here.

Regarding QQLEEDLKGYLDWITQAE [AID-TAT], in data set [1] (setting [4]), the FS is 48.48%, the “HW:BW” value came to 5.81 mg/g, the IVSD is reported as 0.95 mm and the IVSS is on record as 1.05 mm. Moreover, in data set [1] (setting [4]), the LVDPW is 1.26 mm, the LVEDD is recorded as 3.18 mm, the LVESD is given as 1.67 mm and the LVSPW is recorded as 1.43 mm. Besides, in data set [1] (setting [5]), the FS is 38.26^† %, the “HW:BW” value is 4.70^† mg/g, the IVSD is listed as 0.73^† mm and the IVSS is reported as 0.82^† mm. Further, in data set [1] (setting [5]), the LVDPW was 1.23 mm, the LVEDD is reported as 3.33^† mm, the LVESD is reported as 2.06^† mm and the LVSPW is 1.37 mm. For the same sequence, in data set [1] (cTnI-G203S mice with established HCM, 10 μM 3×/wk/5 wk), the “reversal of established HCM” value is recorded as “not effective at reversing the cardiomyopathy”. Besides, in data set [1] (precardiomyopathic cTnI-G203S mice, 10 μM 3×/wk/5 wk), the “development of HCM” value is recorded as “prevents the development of HCM”. In addition, in data set [2], the F-actin organization result is “F-actin organization comparable to wt myocytes”. Moreover, in data set [3] (following coronary artery occlusion in rats), the “contractility and cardiac hypertrophy” value is “improves contractility and prevents the development of cardiac hypertrophy”. Moreover, the “blood pressure and cardiac myocyte calcium influx” value in data set [3] (rat, in vivo) is recorded as “without decreasing blood pressure or altering cardiac myocyte calcium influx”.

The values are drawn from PMC7502707, “Characterization and validation of a preventative therapy for hypertrophic cardiomyopathy in a murine model of the disease” (Proceedings of the National Academy of Sciences of the …, 2020).
